We go through 1 compound from the NIST ThermoML archive (doi:10.1021/je800921n).

For series [1] the following is noted: Crystal; Differential scanning calorimeter. (In general: In DSC, transitions show as peaks or steps in heat flow.)
Series [2] in a line: Molar enthalpy of transition or fusion. The conditions noted are these: Crystal; Differential scanning calorimeter.

For `O=C(O)CCCCCCCC(=O)O` [1,9-nonanedioic acid], the Normal melting temperature in series [1] is 102.5 °C. For the same compound, in series [2], the “Molar enthalpy of transition or fusion” value was 8.44 kcal/mol.
